Data taken from publication PMC12657321, “Pre-clinical evaluation of a potent and effective Pin1-degrading agent in pancreatic cancer” (Molecular Therapy Oncology, 2025).
Non-standard residues stand in square brackets, D forms with d. Residues, ends and D or L forms follow the SMILES beside them. *: point of attachment. Trp(6-Cl) = N[C@@H](Cc1c[nH]c2cc(Cl)ccc12)C(=O)O; Pip = O=C(O)[C@@H]1CCCCN1; ClAc = O=C(CCl)*

How the values were obtained:
[1] = target: T1, Pin1 in MIA PaCa-2 cells (Homo sapiens, UniProt Q13526); experiment: Pin1 degradation by western blot in MIA PaCa-2 cells; format: cell-based; conditions: MIA PaCa-2, 0.5-15 μM for 24 h, Pin1 relative to β-actin
T1 construct: endogenous in cells; host or cells: BxPC3, MIA PaCa-2
T1 sequence (Q13526 whole entry): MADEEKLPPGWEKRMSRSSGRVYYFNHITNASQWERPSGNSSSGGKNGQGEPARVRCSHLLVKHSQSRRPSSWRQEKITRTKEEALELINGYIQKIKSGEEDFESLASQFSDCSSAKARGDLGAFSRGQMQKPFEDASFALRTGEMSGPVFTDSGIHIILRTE
Experimental: To ascertain that the plasma-stable agent 164B8 retained its ability to induce Pin1 degradation in cells, we tested it in three pancreatic cancer cell lines—human BxPC3 and MIA PaCa-2, and the mouse pancreatic cancer cell line KPC—using western blot analysis (Figure 2).
Figure 2 Degradation of Pin1 in different cell lines in response to 164B8 treatment BxPC3, MIA PaCa-2, and KPC were each treated with 0.1% DMSO and concentrations of 164B8 ranging between 0.5 and 15 μM for 24 h, and Pin1 levels were quantified with respect to β-actin using a specific anti-Pin1 antibody and western blotting (uncropped blots are reported in Figure S6).
At the end of the treatments, cells were lysed with a lysis buffer containing 20 mM Tris (pH 7.4), 1% Triton X-100, 5 mM EDTA, 0.1% sodium dodecyl sulfate (SDS), 1% IGEPAL, 0.5% sodium deoxycholate, 120 mM NaCl, and a protease inhibitor cocktail and PhosSTOP (Sigma-Aldrich). Lysates were then centrifuged at 16,000 × g for 20 min at 4°C, and the supernatants were collected. Protein concentrations were determined using the Pierce BCA Protein Assay Kit (Thermo Fisher Scientific) according to the manufacturer’s protocol. For traditional western blotting (Figure 2), samples were loaded onto precast Bis-Tris gels and subsequently transferred onto PVDF membranes. […]

[2] = system: MIA PaCa-2 cells; format: cell-based, human; conditions: 72 h
Experimental: The effect of Pin1 degradation by 164B8 on cell viability was assessed using live-cell analysis (IncuCyte S3). […] Furthermore, to evaluate the acute single-dose toxicity of 164B8 in vivo, CD-1 immune-competent mice were exposed to increasing doses of 164B8. […] Therefore, a maximum tolerated dose was not reached (Figure S12).
Figure S11: Mia PaCa-2 and KPC cells were treated with different doses of 164B8, and the
IncuCyte S3 live-cell analysis system was used to monitor the agent’s activity every 3 hours for
(1 picture or pasted object on this page, not shown here)

CNC(=O)[C@H](Cc1c[nH]c2ccccc12)NC(=O)[C@@H]1CCCCN1C(=O)[C@H](Cc1c[nH]c2cc(Cl)ccc12)NC(=O)CCl [164B8] (ClAc-[Trp(6-Cl)]-[Pip]-Trp-NHMe)
DC50 of Pin1 degradation [1]: sub-micromolar | EC50 [2]: 8.4 µM
